Data from patent US8933270B2, “Use of docasatrienes, resolvins, and their stable analogs in the treatment of airway diseases and asthma” (The Brigham and Women's Hospital, Inc., priority 2002, dated 2015).

Legend:
[1] = tested on: airway leukocyte accumulation; experiment: OVA sensitization and aerosol challenge: lung histology and BAL leukocytes; assay type: in vivo
Method: To determine if PD1 and Resolvin E1 had properties of a counter-regulatory mediator during airway inflammation, physiologically relevant quantities (2, 20 or 200 ng) were administered by intravenous injection to allergen sensitized animals just prior (30 min) to aerosol challenge on 4 consecutive days. […] In conjunction with decreased airway inflammation, levels of the counter-regulatory eicosanoid LXA4 were also […] in the presence of PD1 (data not shown).
(§1) Five to seven week old male FvB mice (Charles River Laboratories, Wilmington, Mass.) were housed in isolation cages under viral antibody-free conditions. Mice were fed a standard diet (Laboratory Rodent Diet 5001, PMI Nutrition International, Richmond, Ind.) that contained no less than 4.5% total fat with 0.26% omega-3 fatty acids and <0.01% C20:4. After Harvard Medical Area IRB approval (Protocol #02570), mice were sensitized with intraperitoneal injections of ovalbumin (OVA) (Grade III; Sigma Chemical Co., St. Louis, Mo.) (10 μg) plus 1 mg aluminum hydroxide (ALUM) (J. T. Baker Chemical Co.; Phillipsburg, N.J.) as adjuvant in 0.2 ml PBS on days 0 and 7. On days 14, 15, 16 and 17, the mice received PD1 (2, 20 or 200 ng), Resolvin E1 (200 ng) (products of biogenic synthesis (Hong, Gronert et al. 2003)), or PBS with 1.6 mM CaCl2 and 1.6 mM MgCl2 (0.1 ml) by intravenous injection 30 min prior to an aerosol challenge containing either PBS or 6% OVA for 25 min/day. On day 18, 24 h after the last aerosol challenge, airway responsiveness to aerosolized methacholine (0, 20, 50 and 75 mg, 10 sec) was measured, bilateral bronchoalveolar lavage (BAL) (2 aliquots of 1 ml PBS plus 0.6 mM EDTA) was performed or tissues were harvested for histological analysis. Lung resistance was measured using a Flexivent ventilator (SciReq, Montreal, Quebec). Resistance was measured as a function of time for each animal, and peak and average values for each dose of methacholine were recorded. No BAL or histological analysis was performed on those animals undergoing airway hyper-responsiveness or lipid extraction studies.
(§2) Tissue morphometry was performed by a member (K. Haley) of the Lung Histopathology Core Laboratory at Brigham and Women's Hospital who was blinded to the experimental conditions prior to histological analyses. Three fields per slide were examined at 200× magnification for vessels, large airways and alveoli with EOS counted at 400× magnification in randomly assigned fields. Vessels were identified by perivascular smooth muscle, and large airways were identified by at least ½ their diameter either cuboidal or columnar epithelia. Measurement of inflammatory mediators was determined in cell-free BAL fluid (2000 g, 10 min) by sensitive and specific ELISAs, in tandem, for interleukin-5 (IL-5), IL-12, IL-13, PGD2 (R&D Systems, Minneapolis, Minn.), cysteinyl LTs, (Cayman Chemical Co, Ann Arbor, Mich.), and LXA4 (Neogen, Lexington, Ky.). Cells in BALF were resuspended in PBS, enumerated by hemocytometer, and concentrated onto microscope slides by cytocentrifuge (STATspin) (265 g). Cells were stained with a Wright-Giemsa stain (Sigma Chemical Co.) to determine leukocyte differentials (after counting ≧200 cells).

[2] = tested on: airway hyper-responsiveness; experiment: OVA model: airway responsiveness to inhaled methacholine (lung resistance); assay type: in vivo, FvB mice; conditions: PD1 0-200 ng; methacholine 0, 20, 50, 75 mg
Method: Because increased airway reactivity is a diagnostic hallmark of asthma, it was also determined if PD 1 regulated airway hyper-responsiveness to inhaled methacholine. After allergen sensitization and aerosol challenge in the presence of PD 1 (0-200 ng), animals were ventilated and exposed (10 sec) to increasing concentrations of inhaled methacholine (0, 20, 50 and 75 mg).
Five to seven week old male FvB mice (Charles River Laboratories, Wilmington, Mass.) were housed in isolation cages under viral antibody-free conditions. Mice were fed a standard diet (Laboratory Rodent Diet 5001, PMI Nutrition International, Richmond, Ind.) that contained no less than 4.5% total fat with 0.26% omega-3 fatty acids and <0.01% C20:4. […] On day 18, 24 h after the last aerosol challenge, airway responsiveness to aerosolized methacholine (0, 20, 50 and 75 mg, 10 sec) was measured, bilateral bronchoalveolar lavage (BAL) (2 aliquots of 1 ml PBS plus 0.6 mM EDTA) was performed or tissues were harvested for histological analysis. Lung resistance was measured using a Flexivent ventilator (SciReq, Montreal, Quebec). Resistance was measured as a function of time for each animal, and peak and average values for each dose of methacholine were recorded. […]

PMN infiltration = experiment: Zymosan A-induced peritonitis; assay type: in vivo, FVB mice; conditions: i.v. bolus before zymosan A, lavage at 2 h
Method: FIG. 5 depicts Bioimpact properties of omega-3-derived Resolvins. A) Human glioma cells: Inhibition of TNF-stimulated IL-1β transcripts DBTRG-05MG cells 10^6/ml were stimulated with 50 ng/ml of human recombinant TNFα for 16 hours to induce expression of IL-1β transcripts. Concentration dependence with COX-2 products: 17-HDHA (n), 13-HDHA (l)and di-/tri-HDHA (n). […] (insets) Results are representative of RT-PCR gels of MG cells exposed to 100 nM of 13-HDHA or 17-HDHA and graphed after normalization of the IL-1β transcripts using GAPDH. B) Influence of eicosanoids and docosanoids on fMLP-induced neutrophil migration across micovascular endothelial monolayers Neutrophils (1×10^6 cells/monolayer) were exposed to vehicle containing buffer, or indicated concentrations of aspirin-triggered LXA4 analog (closed diamonds) 5S,12,18R-triHEPE (closed squares), 17R-HDHA (closed circles) or 13-HDHA (closed triangles) for 15 minutes at 37° C. Neutrophils were then layered on HMVEC monolayers and stimulated to transmigrate by a 10^−8 M fMLP gradient for 1 hr at 37° C. Transmigration was assessed by quantitation of the neutrophil marker myeloperoxidase. Results are presented as mean±SEM number of PMN (n=8-12 monolayers per condition). C) Reduction of PMN in murine peritonitis and skin pouch peritonitis: Compounds (100 ng in 120 μL sterile saline) were injected by intravenous bolus injection into the mouse tail vein and followed by 1 ml zymosan A (1 mg/ml) into the peritoneum. Peritoneal lavages were collected (2 h) and cell types were enumerated.
Human PMN transendothelial migration was quantitated by monitoring myeloperoxidase (MPO) an azurophilic granule marker as in (34, 37). Inflammatory exudates were initiated with intrapouch injection of recombinant mouse TNFα (100 ng/pouch; R&D Systems) into dorsal air pouches (10) of 6-8 wk male FVB mice fed laboratory rodent diet 5001 (Lab Diet, Purina Mills) containing less than 0.25% arachidonic acid, 1.49% EPA and 1.86% DHA followed by ASA (500 μg) at 3.5 h and 300 μg DHA/pouch at 4 h post-TNFα injection. At 6 h (within the resolution phase), pouches were lavaged (3 ml saline) and exudate cells were enumerated Inhibition of TNFα stimulated (100 ng/pouch) PMN infiltration with i.v. tail injection of either 17R-HDHA (as prepared with COX-2 vide infra), 5S,12,18R-HEPE, or a 15-epi-LXA4 analog were determined with pouch lavages taken at 4 h. Peritonitis was performed using 6 to 8-week-old FVB male mice (Charles River Laboratories) fed laboratory Rodent Diet 5001 (Purina Mills) that were anesthetized with isoflurane, and compounds to be tested (125 μl) were administered intravenously. Zymosan A in 1 ml (1 mg/ml) was injected ˜1-1.5 min later in the peritoneum. Each test compound (100 ng/incubation, i.e. 17R-HDHA in ethanol) or vehicle alone was suspended in ˜5 μl and mixed in sterile saline 120 μl. Two hours after the intraperitoneal injections, and in accordance with the Harvard Medical Area Standing Committee on Animals protocol #02570, mice were euthanized and peritoneal lavages rapidly collected for enumeration.
Peritonitis was induced in 6 to 8 week old male FVB mice by peritoneal injection of 1 mg Zymosan A. Compounds 4,17S and 10,17S-diHDHA were injected by intravenous bolus injection, 1.5 minutes before Zymosan A treatment. Two hours after induction of peritonitis, rapid peritoneal lavages were collected and cell type enumeration was performed.

[3] = tested on: BALF cytokines and lipid mediators; experiment: OVA model: inflammatory mediators in BAL fluid by ELISA; assay type: in vivo, FvB mice
Description: as §1, §2

[4] = i.v. 30 min before aerosol challenge on 4 days

Compound: CC/C=C\C[C@H](O)\C=C/C=C/C=C/C(O)C/C=C\C/C=C\CCC(=O)O (stereo in doubt) [PD1, 10,17S-dihydroxy-4,7,15,19-cis-11,13-trans-docosahexaenoic acid]
- eosinophil and lymphs (FIG. 25) ([1]; 10,17-DT 20 ng and 200 ng, Resolvin E1 200 ng): reduced
- total leukocytes, EOS and Lymphs in BAL fluid ([1]; PD1 2, 20 or 200 ng, Resolvin E1 200 ng i.v.): decreased
- behavioral or physical signs of toxicity ([1]; PD1 treatment, nanogram quantities i.v.): No behavioral or physical signs of toxicity
- lowest dose reducing TH2 lymphocyte activation / eosinophil recruitment ([1]; i.v.): 2 ng
- EOS tissue infiltration around vessels, large and peripheral airways (morphometry) [1, 4]: significant decreases
- edema and epithelial hyperplasia [1, 4]: markedly decreased
- eosinophils and lymphocytes in peribronchiolar regions and airspaces ([1]; i.v. 30 min before aerosol challenge on 4 days, vs vehicle): substantially less
- peak and average lung resistance in response to methacholine [2]: decreased both peak and average lung resistance
- inhibition of PMN/leukocyte infiltration (PMN infiltration; listed as 10,17S-docosatrienes): potent inhibition
- inhibition of PMN/leukocyte infiltration (PMN infiltration; listed as 10,17 di-HDHA): inhibited
- IL-12 levels ([3]; BAL fluid): no significant effect
- allergen-induced increase in CysLTs ([3]; BAL fluid): blocked allergen-induced increases
- allergen-induced increase in IL-13 ([3]; BAL fluid): blocked allergen-induced increases
- allergen-induced increase in PGD2 ([3]; BAL fluid): blocked allergen-induced increases
- potency of inhibitory concentrations relative to the LX analog ([3]; IL-13 and CysLT generation): 1 to 2 log orders
- levels of LXA4 ([3]; data not shown): diminished
